What was measured:
Assay in all cases: KiNativ profiling in human PBMCs
Type in all cases: binding
[1] = test system: JNK1,JNK2,JNK3; details: Lys2
Experimental: (§1) Compounds were shipped to ActivX Technologies (San Diego, US) where LRRK2 target engagement and broad kinase profiling was performed using KiNativ™ procedures. Live cell treatment of human peripheral blood mononuclear cells (PBMCs) at two compound concentrations (1 µM and 0.1 µM) were used to evaluate and compare in vitro target engagement and kinase selectivity, respectively (see Supplementary File 1).

[2] = test system: T1, STLK6; details: Lys2
T1 construct: purchased ActivX Technologies (KiNativ)
Experimental: as §1

[3] = test system: MST1,MST2; details: Lys2
Experimental: as §1

[4] = test system: MAP3K15,MAP3K5,MAP3K6; details: Lys1
Experimental: as §1

[5] = test system: T2, ILK
T2 construct: purchased ActivX Technologies (KiNativ)
Experimental: as §1

[6] = test system: T3, FER
T3 construct: purchased ActivX Technologies (KiNativ)
Experimental: as §1

[7] = test system: PKCa,PKCb; details: Lys2
Experimental: as §1

[8] = test system: T4, MAP2K4; details: 1µM; Lys2
T4 construct: purchased ActivX Technologies (KiNativ)
Experimental: as §1

[9] = test system: T5, MAP2K5; details: Lys2
T5 construct: purchased ActivX Technologies (KiNativ)
Experimental: as §1

[10] = test system: T6, SMG1; details: ATP
T6 construct: purchased ActivX Technologies (KiNativ)
Experimental: as §1

[11] = test system: T7, TLK1
T7 construct: purchased ActivX Technologies (KiNativ)
Experimental: as §1

[12] = test system: T8, ZAK; details: Lys1
T8 construct: purchased ActivX Technologies (KiNativ)
Experimental: as §1

[13] = test system: T9, MST1; details: Lys1
T9 construct: purchased ActivX Technologies (KiNativ)
Experimental: as §1

[14] = test system: T10, PIK3CB; details: ATP
T10 construct: purchased ActivX Technologies (KiNativ)
Experimental: as §1

[15] = test system: T11, PAN3; details: Protein Kinase Domain
T11 construct: purchased ActivX Technologies (KiNativ)
Experimental: as §1

[16] = test system: IKKe,TBK1; details: Lys2
Experimental: as §1

[17] = test system: KSR1,KSR2; details: Activation Loop
Experimental: as §1

[18] = test system: T12, KSR1; details: 0.1µM; Activation Loop
T12 construct: purchased ActivX Technologies (KiNativ)
Experimental: as §1

[19] = test system: T13, CaMK1d
T13 construct: purchased ActivX Technologies (KiNativ)
Experimental: as §1

[20] = test system: T14, FGR; details: Activation Loop
T14 construct: purchased ActivX Technologies (KiNativ)
Experimental: as §1

[21] = test system: T15, TBK1; details: Lys1
T15 construct: purchased ActivX Technologies (KiNativ)
Experimental: as §1

[22] = test system: T16, PIP4K2C; details: ATP
T16 construct: purchased ActivX Technologies (KiNativ)
Experimental: as §1

[23] = test system: T17, MSK2 domain1; details: Lys2
T17 construct: MSK2 domain1; purchased ActivX Technologies (KiNativ)
Experimental: as §1

[24] = test system: T18, BTK; details: Activation Loop
T18 construct: purchased ActivX Technologies (KiNativ)
Experimental: as §1

[25] = test system: T19, PKR
T19 construct: purchased ActivX Technologies (KiNativ)
Experimental: as §1

[26] = test system: T20, MSK1 domain1; details: Lys2
T20 construct: MSK1 domain1; purchased ActivX Technologies (KiNativ)
Experimental: as §1

[27] = test system: T21, PYK2; details: Lys1
T21 construct: purchased ActivX Technologies (KiNativ)
Experimental: as §1

[28] = test system: T22, smMLCK
T22 construct: purchased ActivX Technologies (KiNativ)
Experimental: as §1

[29] = test system: T23, MAP3K6; details: Lys2
T23 construct: purchased ActivX Technologies (KiNativ)
Experimental: as §1

[30] = test system: NEK6,NEK7; details: Lys2
Experimental: as §1

[31] = test system: T24, CaMK1a; details: Lys1
T24 construct: purchased ActivX Technologies (KiNativ)
Experimental: as §1

[32] = test system: T25, RSK2 domain2; details: Lys2
T25 construct: RSK2 domain2; purchased ActivX Technologies (KiNativ)
Experimental: as §1

[33] = test system: T26, BARK1; details: Lys2
T26 construct: purchased ActivX Technologies (KiNativ)
Experimental: as §1

[34] = test system: T27, RSK3 domain1; details: Lys2
T27 construct: RSK3 domain1; purchased ActivX Technologies (KiNativ)
Experimental: as §1

[35] = test system: T28, TAO2; details: Lys2
T28 construct: purchased ActivX Technologies (KiNativ)
Experimental: as §1

SMILES: Cc1cccc(-c2cc(Nc3ccn(C)n3)nc3[nH]cc(C#N)c23)c1 [Lu AF58786]
- Inhibition ([1]; 0.1µM): 30.2%
- Inhibition ([1]; 1µM): 71.2%
- Inhibition ([2]; 0.1µM): -9.8%
- Inhibition ([2]; 1µM): -1.6%
- Inhibition ([3]; 0.1µM): 6.3%
- Inhibition ([3]; 1µM): 4.8%
- Inhibition ([4]; 0.1µM): 12.0%
- Inhibition ([4]; 1µM): 11.6%
- Inhibition ([5]; 0.1µM, Lys1): 2.8%
- Inhibition ([5]; 0.1µM, Protein Kinase Domain): -27.2%
- Inhibition ([5]; 1µM, Lys1): 5.7%
- Inhibition ([5]; 1µM, Protein Kinase Domain): -1.7%
- Inhibition ([6]; 0.1µM, Activation Loop): -5.4%
- Inhibition ([6]; 0.1µM, Lys1): 1.7%
- Inhibition ([6]; 1µM, Activation Loop): -16.1%
- Inhibition ([6]; 1µM, Lys1): 5.0%
- Inhibition ([7]; 0.1µM): -5.7%
- Inhibition ([7]; 1µM): -0.9%
- Inhibition [8]: -0.124%
- Inhibition ([9]; 0.1µM): -0.318%
- Inhibition ([9]; 1µM): 17.4%
- Inhibition ([10]; 0.1 µM, DTVTIHSVGGTITILPTKTKPK): -6.3%
- Inhibition ([10]; 0.1 µM, SYPYLFKGLEDLHLDER): 12.6%
- Inhibition ([10]; 1 µM, DTVTIHSVGGTITILPTKTKPK): -13.9%
- Inhibition ([10]; 1 µM, SYPYLFKGLEDLHLDER): 4.3%
- Inhibition ([11]; 0.1µM, Lys1): 2.2%
- Inhibition ([11]; 0.1µM, Lys2): 16.2%
- Inhibition ([11]; 1µM, Lys1): 15.4%
- Inhibition ([11]; 1µM, Lys2): 4.7%
- Inhibition ([12]; 0.1µM): 18.8%
- Inhibition ([12]; 1µM): 11.6%
- Inhibition ([13]; 0.1µM): 26.2%
- Inhibition ([13]; 1µM): 19.0%
- Inhibition ([14]; 0.1µM): 14.0%
- Inhibition ([14]; 1µM): -22.3%
- Inhibition ([15]; 0.1µM): -11.9%
- Inhibition ([15]; 1µM): -9.9%
- Inhibition ([16]; 0.1µM): -16.4%
- Inhibition ([16]; 1µM): -9.8%
- Inhibition ([17]; 0.1µM): 12.4%
- Inhibition ([17]; 1µM): -3.6%
- Inhibition [18]: -19.0%
- Inhibition ([19]; 0.1µM, Lys1): 11.8%
- Inhibition ([19]; 0.1µM, Lys2): -11.6%
- Inhibition ([19]; 1µM, Lys1): -4.5%
- Inhibition ([19]; 1µM, Lys2): -6.3%
- Inhibition ([20]; 0.1µM): 11.4%
- Inhibition ([20]; 1µM): 5.2%
- Inhibition ([21]; 0.1µM): 10.1%
- Inhibition ([21]; 1µM): 26.3%
- Inhibition ([22]; 0.1µM): 19.6%
- Inhibition ([22]; 1µM): 31.1%
- Inhibition ([23]; 0.1µM): 28.3%
- Inhibition ([23]; 1µM): 19.0%
- Inhibition ([24]; 0.1µM): 25.8%
- Inhibition ([24]; 1µM): 9.5%
- Inhibition ([25]; 0.1µM, Activation Loop): 6.9%
- Inhibition ([25]; 0.1µM, Lys2): 5.1%
- Inhibition ([25]; 1µM, Activation Loop): -2.5%
- Inhibition ([25]; 1µM, Lys2): 4.5%
- Inhibition ([26]; 0.1µM): 15.8%
- Inhibition ([26]; 1µM): 1.9%
- Inhibition ([27]; 0.1µM): -16.3%
- Inhibition ([27]; 1µM): -2.7%
- Inhibition ([28]; 0.1µM, Lys1): 1.6%
- Inhibition ([28]; 0.1µM, Lys2): 3.0%
- Inhibition ([28]; 1µM, Lys1): 18.7%
- Inhibition ([28]; 1µM, Lys2): -2.1%
- Inhibition ([29]; 0.1µM): 31.4%
- Inhibition ([29]; 1µM): 4.4%
- Inhibition ([30]; 0.1µM): 15.4%
- Inhibition ([30]; 1µM): -5.8%
- Inhibition ([31]; 0.1µM): 11.0%
- Inhibition ([31]; 1µM): -3.0%
- Inhibition ([32]; 0.1µM): -3.4%
- Inhibition ([32]; 1µM): 2.8%
- Inhibition ([33]; 0.1µM): 12.1%
- Inhibition ([33]; 1µM): 6.3%
- Inhibition ([34]; 0.1µM): 12.9%
- Inhibition ([34]; 1µM): 26.9%
- Inhibition ([35]; 0.1µM): 17.3%
- Inhibition ([35]; 1µM): 18.3%

Reference: article PMC5578959, “Selective LRRK2 kinase inhibition reduces phosphorylation of endogenous Rab10 and Rab12 in human peripheral mononuclear blood cells” (Scientific Reports, 2017)
